The values below come from US5993815A, “Methods and compositions for inhibiting the activation of thrombin-activatable fibrinolysis inhibitor (TAFI)” (University of Vermont, priority 1997, dated 1999).

Holding throughout (format): biochemical
The target of experiment [1] is T1, thrombin in complex with thrombomodulin (activation of purified human TAFI) (Homo sapiens, UniProt P00734).
T1 construct: Prothrombin was purified as described previously and used to prepare thrombin; made in house
As to the kind of experiment: two-stage TAFI activation assay, chromogenic substrate hippuryl arginine. To be noted: FPA-CK 50 nmol/L present during incubation of TAFI with thrombin and thrombomodulin, 10 minutes at 22° C.
Protocol: In a 25-μL reaction volume, TAFI zymogen (0.8 μmol/L final concentration) is incubated with thrombomodulin (40 nmol/L final concentration), Ca^2+ (5.0 mmol/L final concentration), and thrombin (8.0 nmol/L final concentration) in the presence and absence of the putative peptide for 10 minutes at 22° C. Thrombin is then inhibited by the addition of the Phe-Pro-Arg chloromethyl ketone (FPA-CK 50 nmol/L final concentration). […] A negative control may be used by adding FPA-CK at the initiation of the reaction. In the negative control TAFI is not activated because the thrombin is inhibited from functioning. […] The time course of hippuric acid formation is measured by first correcting the volume in each of the reactions by the addition of a volume of buffer equal to that of the added putative peptide. […] The time course of hippuric acid formation at 22° C. is followed by monitoring absorbance at 254 nm and 0.5 minute intervals using a spectrophotometer such as Beckman DU-65 spectrophotometer (Fullteron, Calif.).
Hydrolysis of the chromogenic substrate, hipurryl arginine, was used to determine whether MoAbTAFI#16 inhibits active TAFI. […] The time course of hippuric acid formation at 22° C. was followed by monitoring absorbance at 254 nm and 0.5 minute intervals using a Beckman DU-65 spectrophotometer (Fullteron, Calif.). […]

Experiment [2] has as its target T2, active TAFI (thrombin-activatable fibrinolysis inhibitor, plasma carboxypeptidase B) in clots formed from normal human plasma (Homo sapiens, UniProt Q96IY4).
T2 construct: tissue Haematologic Technologies Inc. (Burlington, Vt.); host or cells: pooled (3 to 4 donors) fresh frozen human plasma
T2 sequence (Q96IY4 115-423): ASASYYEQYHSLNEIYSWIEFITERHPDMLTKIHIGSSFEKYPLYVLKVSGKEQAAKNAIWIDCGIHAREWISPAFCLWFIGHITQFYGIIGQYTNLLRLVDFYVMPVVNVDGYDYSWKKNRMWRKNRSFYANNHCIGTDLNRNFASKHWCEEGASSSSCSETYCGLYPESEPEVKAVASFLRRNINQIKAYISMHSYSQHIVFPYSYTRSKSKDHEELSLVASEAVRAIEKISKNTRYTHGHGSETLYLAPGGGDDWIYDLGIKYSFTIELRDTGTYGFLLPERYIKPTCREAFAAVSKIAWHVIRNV
The experiment in a line: turbidometric tPA-induced lysis assay of clots formed from normal human plasma (NHP). To be noted: tPA 294 pmol/L, 37° C., TAFI-dependent profibrinolytic effect, read-out: EC50 (shortening of lysis time). The protocol:
(§1) Preparation of plasma for lysis assays. Pooled (3 to 4 donors) fresh frozen human plasma was purchased from Haematologic Technologies Inc. (Burlington, Vt.) and dialyzed against 4 L of 20 mmol/L HEPES, 150 mmol/L NaCl, pH 7.4 (HBS) at 4° C. with 4 changes overnight. The dialysate, termed normal human plasma (NHP), was stored at -70° C. in 2.0-mL aliquots. TAFI-deficient plasma (TdP) was produced by passing an aliquot, maximally 50 mL, of NHP over a 2.0-mL anti-TAFI affinity column (MoAbTAFI#16-Sepharose 4B) equilibrated in HBS. Depletion of TAFI was verified by Western blot analysis of a sample from each individual fraction. Only the flow-through fractions depleted of TAFI with an A280 equal to the NHP loaded onto the column were pooled and subsequently stored in 2.0 mL aliquots at -70° C. Pooled plasma samples were also subjected to Western blotting and TAFI concentrations were quantified by ELISA.
(§2) Lysis assay. […] After adding the plasma to the microtiter wells, the plate was transferred to a THERMOMAX microtiter plate reader (Molecular Devices). Temperature was maintained at 37° C. and the turbidity was monitored at 405 nm and 2.5-minute intervals. […]
(§3) 3. […] The TAFI-dependent profibrinolytic effect of each compound was evaluated by determination of lysis time of clots formed from both NHP and TdP in the presence of various concentrations of each inhibitor. […]

The test system of experiment [3] is clots formed from TAFI-deficient human plasma (TdP). As to the kind of experiment: turbidometric tPA-induced lysis assay of clots formed from TAFI-deficient plasma (TdP). To be noted: every concentration studied; lysis time approximately 50 minutes. The protocol:
as §1, §2, §3

For orientation: EC50 means the concentration giving half of the maximal effect.

On to `N=C(N)NCCC[C@H](NC(=O)[C@@H]1CCCN1C(=O)[C@@H](N)Cc1ccccc1)C(=O)CCl` [FPA-CK, Phe-Pro-Arg chloromethyl ketone], for which the “active TAFI activity generated” value in experiment [1] is “No active TAFI activity was generated”.

As for `N=C(N)NCCSC(CC(=O)O)C(=O)O` (stereo not drawn) [GEMSA, 2-Guanidinoethylmercaptosuccinic acid], in experiment [2], the concentration for a half-maximal effect (EC50) turned out to be 90 µM. Besides, the “effect on lysis time of clots formed from TdP” value in experiment [3] is listed as “did not affect lysis time”.
